Measured values from ChEMBL document CHEMBL5050844 (2019).

Tests used:
[1] = Induction of anti-CD3/CD28 antibodies-stimulated human T cell activation at 4 uM assessed fold increase in IL-2 secretion measured by ELISA assay; assay type: functional, T cell line
[2] = Induction of anti-CD3/CD28 antibodies-stimulated human T cell activation at 10 uM assessed fold increase in IFN-gamma secretion measured by ELISA assay; assay type: functional, T cell line
[3] = Induction of anti-CD3/CD28 antibodies-stimulated human T cell activation at 1.11 uM assessed fold increase in TNF-alpha secretion measured by ELISA assay; assay type: functional, T cell line
[4] = Induction of anti-CD3 antibodies-stimulated human T cell activation at 8 uM assessed fold increase in CD25 expression measured by ELISA assay; assay type: functional, T cell line; also: reference of the scale not given here
[5] = Induction of anti-CD3 antibodies-stimulated human CD8+ T cell activation at 1.11 uM assessed fold increase in CD69 expression measured by flow cytometry analysis; assay type: functional, T cell line; also: reference of the scale not given here
[6] = Induction of anti-CD3/CD28 antibodies-stimulated human anergic T cell activation at 0.37 uM assessed fold increase in IFN-gamma secretion measured by ELISA assay; assay type: functional, T cell line
[7] = Induction of anti-CD3 antibodies-stimulated human exhausted T cell activation assessed fold increase in IL-2 secretion measured by ELISA assay; assay type: functional, T cell line; also: reference of the scale not given here
[8] = Induction of anti-CD3 antibodies-stimulated human CD4+ T cell activation at 10 uM assessed fold increase in CD69 expression measured by flow cytometry analysis; assay type: functional, T cell line; also: reference of the scale not given here
[9] = Induction of anti-CD3/CD28 antibodies-stimulated human T cell activation at 10 uM assessed fold increase in GM-CSF secretion measured by ELISA assay; assay type: functional, T cell line
[10] = Induction of activation of human CD56+ CD3- NK cells co-cultured with human K562 cells in 1:1 ratio and assessed as increase in IFN-gamma secretion at 2.5 uM measured by ELISA assay; assay type: functional, Natural killer cell
[11] = Induction of anti-CD3 antibodies-stimulated human CD4+ T cell activation at 1.11 uM assessed fold increase in CD69 expression measured by flow cytometry analysis; assay type: functional, T cell line; also: reference of the scale not given here
[12] = Induction of anti-CD3 antibodies-stimulated human exhausted CD8+ T cell activation assessed fold increase in CTLA4 expression measured by flow cytometry analysis; assay type: functional, T cell line; also: reference of the scale not given here
[13] = Induction of anti-CD3/CD28 antibodies-stimulated human T cell activation at 1 uM assessed fold increase in CD25 expression measured by ELISA assay; assay type: functional, T cell line
[14] = Induction of anti-CD3/CD28 antibodies-stimulated human anergic T cell activation at 10 uM assessed fold increase in IFN-gamma secretion measured by ELISA assay; assay type: functional, T cell line
[15] = Induction of anti-CD3/CD28 antibodies-stimulated human CD4+ T cell activation at 1.11 uM assessed fold increase in cell proliferation measured by flow cytometry analysis; assay type: functional, T cell line
[16] = Induction of activation of human CD56+ CD3- NK cells co-cultured with human K562 cells in 1:1 ratio and assessed as increase in IFN-gamma secretion at 10 uM measured by ELISA assay; assay type: functional, Natural killer cell
[17] = Induction of activation of human CD56+ CD3- NK cells co-cultured with human K562 cells in 1:1 ratio and assessed as increase in TNF-alpha secretion at 10 uM measured by ELISA assay; assay type: functional, Natural killer cell
[18] = Induction of anti-CD3/CD28 antibodies-stimulated human T cell activation at 0.3 uM assessed fold increase in CD25 expression measured by ELISA assay; assay type: functional, T cell line
[19] = Induction of anti-CD3 antibodies-stimulated human CD8+ T cell activation at 10 uM assessed fold increase in CD69 expression measured by flow cytometry analysis; assay type: functional, T cell line; also: reference of the scale not given here
[20] = Induction of anti-CD3 antibodies-stimulated human CD8+ T cell activation at 10 uM assessed fold increase in cell proliferation measured by flow cytometry analysis; assay type: functional, T cell line; also: reference of the scale not given here
[21] = Induction of anti-CD3/CD28 antibodies-stimulated human T cell activation at 1.11 uM assessed fold increase in IFN-gamma secretion measured by ELISA assay; assay type: functional, T cell line
[22] = Induction of anti-CD3/CD28 antibodies-stimulated human CD4+ T cell activation at 10 uM assessed fold increase in cell proliferation measured by flow cytometry analysis; assay type: functional, T cell line
[23] = Induction of anti-CD3 antibodies-stimulated human T cell activation at 1.11 uM assessed fold increase in TNF-alpha secretion measured by ELISA assay; assay type: functional, T cell line; also: reference of the scale not given here
[24] = Induction of anti-CD3 antibodies-stimulated human T cell activation at 1 uM assessed fold increase in CD25 expression measured by ELISA assay; assay type: functional, T cell line; also: reference of the scale not given here
[25] = Induction of activation of human CD56+ CD3- NK cells co-cultured with human K562 cells in 1:1 ratio and assessed as increase in TNF-alpha secretion at 2.5 uM measured by ELISA assay; assay type: functional, Natural killer cell
[26] = Induction of anti-CD3/CD28 antibodies-stimulated human CD8+ T cell activation at 1.11 uM assessed fold increase in CD69 expression measured by flow cytometry analysis; assay type: functional, T cell line
[27] = Induction of anti-CD3 antibodies-stimulated human T cell activation at 1.11 uM assessed fold increase in IFN-gamma secretion measured by ELISA assay; assay type: functional, T cell line; also: reference of the scale not given here
[28] = Induction of anti-CD3/CD28 antibodies-stimulated human T cell activation at 10 uM assessed fold increase in TNF-alpha secretion measured by ELISA assay; assay type: functional, T cell line
[29] = Induction of anti-CD3 antibodies-stimulated human T cell activation at 8 uM assessed fold increase in IL-2 secretion measured by ELISA assay; assay type: functional, T cell line; also: reference of the scale not given here
[30] = Induction of anti-CD3/CD28 antibodies-stimulated human T cell activation at 0.3 uM assessed fold increase in IL-2 secretion measured by ELISA assay; assay type: functional, T cell line
[31] = Induction of anti-CD3/CD28 antibodies-stimulated human CD4+ T cell activation at 10 uM assessed fold increase in CD69 expression measured by flow cytometry analysis; assay type: functional, T cell line
[32] = test system: B cell; experiment: Induction of anti-IgM-stimulated human CD20+ B cell activation at 10 to 1000 uM assessed as increase in CD69 expression measured as mean fluorescence intensity AUC by flow cytometry analysis; assay type: functional, cell-based; conditions: dose 10-1000 µM
[33] = Induction of anti-CD3 antibodies-stimulated human CD8+ T cell activation at 1.11 uM assessed fold increase in cell proliferation measured by flow cytometry analysis; assay type: functional, T cell line; also: reference of the scale not given here
[34] = Induction of anti-CD3 antibodies-stimulated human T cell activation at 10 uM assessed fold increase in GM-CSF secretion measured by ELISA assay; assay type: functional, T cell line; also: reference of the scale not given here
[35] = Induction of allogenic human T cell activation at 10 uM assessed fold increase in cell proliferation; assay type: functional, T cell line
[36] = Induction of anti-CD3 antibodies-stimulated human exhausted T cell activation assessed fold increase in GM-CSF secretion measured by ELISA assay; assay type: functional, T cell line; also: reference of the scale not given here
[37] = Induction of anti-CD3/CD28 antibodies-stimulated human CD4+ T cell activation at 1.11 uM assessed fold increase in CD69 expression measured by flow cytometry analysis; assay type: functional, T cell line
[38] = Induction of anti-CD3 antibodies-stimulated human T cell activation at 10 uM assessed fold increase in IFN-gamma secretion measured by ELISA assay; assay type: functional, T cell line; also: reference of the scale not given here

Compound	fold change (FC) [1]	fold change (FC) [2]	fold change (FC) [3]	fold change (FC) [4]	fold change (FC) [5]	fold change (FC) [6]	fold change (FC) [7]	fold change (FC) [8]	fold change (FC) [9]	fold change (FC) [10]	fold change (FC) [11]	fold change (FC) [12]	fold change (FC) [13]	fold change (FC) [14]	fold change (FC) [15]	fold change (FC) [16]	fold change (FC) [17]	fold change (FC) [18]	fold change (FC) [19]	fold change (FC) [20]	further results
C[C@H](Cc1nncn1C)c1cccc(NC(=O)c2cc3cc(N4CCNCC4)ccc3cn2)c1.Cl	2.51	<=2	1.51	0.801	<=1.2	<=2.5	<=2.5	1.401	2.01	<=1	1.401	1.41	1.01	2.51	3.01	2.01	1.01	1.01	1.201	<=2	fold change (FC) [21]: <=2; fold change (FC) [22]: >4; fold change (FC) [23]: <=1.5; fold change (FC) [24]: 0.801; fold change (FC) [25]: <=1; fold change (FC) [26]: <=1.2; fold change (FC) [27]: <=2; fold change (FC) [28]: 1.51; fold change (FC) [29]: 0.101; fold change (FC) [30]: <=1; fold change (FC) [31]: 1.401; AUC [32]: 1.01; fold change (FC) [33]: 2.01; fold change (FC) [34]: 1.51; fold change (FC) [35]: <=2; fold change (FC) [36]: <=1.4; fold change (FC) [37]: 1.201; fold change (FC) [38]: <=2
Cc1cc2c(c(C3CC3)n1)CN(c1cccc([C@H](C)Cc3nncn3C)c1)C2=O	2.51	<=2	<=1.5	0.801	<=1.2	<=2.5	<=2.5	1.201	2.01	1.01	<=1.2	<=1.4	1.01	2.51	<=2	2.01	1.01	1.01	1.201	2.01	fold change (FC) [21]: <=2; fold change (FC) [22]: >4; fold change (FC) [23]: <=1.5; fold change (FC) [24]: 0.601; fold change (FC) [25]: <=1; fold change (FC) [26]: <=1.2; fold change (FC) [27]: <=2; fold change (FC) [28]: 2.01; fold change (FC) [29]: 0.101; fold change (FC) [30]: 1.01; fold change (FC) [31]: 1.201; AUC [32]: < 0.5; fold change (FC) [33]: <=2; fold change (FC) [34]: 1.51; fold change (FC) [35]: <=2; fold change (FC) [36]: <=1.4; fold change (FC) [37]: <=1.2; fold change (FC) [38]: <=2
Cn1cnnc1[C@@H]1C[C@@H]1c1cccc(N2Cc3c(cccc3C(F)(F)F)C2=O)c1	2.51	2.01	<=1.5	>=1.001	<=1.2	<=2.5	2.51	1.201	2.01	1.01	<=1.2	<=1.4	>=1.76	<=2.5	<=2	2.01	1.01	>=1.76	<=1.2	3.01	fold change (FC) [21]: <=2; fold change (FC) [22]: >4; fold change (FC) [23]: <=1.5; fold change (FC) [24]: 0.601; fold change (FC) [25]: 1.01; fold change (FC) [26]: <=1.2; fold change (FC) [27]: <=2; fold change (FC) [28]: 2.01; fold change (FC) [29]: <=0.05; fold change (FC) [30]: <=1; fold change (FC) [31]: 1.201; AUC [32]: 0.5; fold change (FC) [33]: <=2; fold change (FC) [34]: 2.01; fold change (FC) [35]: <=2; fold change (FC) [36]: <=1.4; fold change (FC) [37]: <=1.2; fold change (FC) [38]: 2.01
C[C@@H](c1cc2c(c(C(F)(F)F)c1)CN(c1cccc(C3(Cc4nncn4C)COC3)c1)C2=O)N1CC[C@H](F)C1	>=7.5	>4	2.01	>=1.001	1.401	<=2.5	<=2.5	>1.601	>4	2.01	>1.601	<=1.4	1.51	>4.01	>4	>=5	2.01	1.31	1.401	>4	fold change (FC) [21]: >4; fold change (FC) [22]: >4; fold change (FC) [23]: 1.51; fold change (FC) [24]: >=1.001; fold change (FC) [25]: 2.01; fold change (FC) [26]: 1.201; fold change (FC) [27]: 3.01; fold change (FC) [28]: >4; fold change (FC) [29]: >=0.201; fold change (FC) [30]: >=7.5; fold change (FC) [31]: 1.401; AUC [32]: > 1.51; fold change (FC) [33]: >4; fold change (FC) [34]: >4; fold change (FC) [35]: >3; fold change (FC) [36]: 1.41; fold change (FC) [37]: 1.401; fold change (FC) [38]: >4
